DC50 and Dmax data for 17 compounds are collected here from patent EP4759807A1, “PROTEOLYSIS TARGETING CHIMERA COMPOUND FOR DEGRADING IRAK4 AND USE THEREOF” (Shenzhen Zhongge Biological Technology Co., Ltd., priority 2023, dated 2025).

Structures can show the parent of a compound that is named as a salt.

The target in test [1] is T1, IRAK4 (Homo sapiens, UniProt Q9NWZ3).
T1 sequence (Q9NWZ3 1-460): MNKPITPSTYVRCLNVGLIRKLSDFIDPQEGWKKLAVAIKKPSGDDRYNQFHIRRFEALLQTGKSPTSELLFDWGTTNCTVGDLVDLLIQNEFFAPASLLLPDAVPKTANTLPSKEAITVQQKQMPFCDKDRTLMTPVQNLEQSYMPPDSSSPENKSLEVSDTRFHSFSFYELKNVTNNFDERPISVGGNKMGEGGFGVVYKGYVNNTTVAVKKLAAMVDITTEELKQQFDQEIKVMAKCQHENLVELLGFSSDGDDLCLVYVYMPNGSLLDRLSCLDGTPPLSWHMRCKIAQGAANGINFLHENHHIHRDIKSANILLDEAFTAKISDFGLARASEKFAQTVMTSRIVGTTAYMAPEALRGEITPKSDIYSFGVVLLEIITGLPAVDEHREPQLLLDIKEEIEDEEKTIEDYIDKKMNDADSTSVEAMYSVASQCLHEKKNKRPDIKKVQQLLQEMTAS
Put plainly: WB detection of proteolysis (Western Blot, THP-1 cells). The class given is cell-based. Particulars: Western Blot, THP-1 cells, 24 h; for DC50: read-out: DC50. The protocol:
The degradation level of IRAK4 in THP-1 cells was detected by Western Blot technology. […] 1000X gradient dilution stock of the compound was prepared, with the highest concentration set at 300 µM. The dilution was carried out using DMSO in a 1:3 dilution factor, yielding a total of 9 concentrations. 1000X gradient dilutions of the compound were added to a 12-well plate, with 1 µL per well. Incubation was performed under conditions of 37°C and 5% CO2 for 24 h, and the cells were collected into 2 mL of centrifuge tubes and centrifuged at 5000 rpm for 5 min, and the supernatant was removed. 100 µL of RIPA lysis buffer (Beyotime, P0013C) was added and mixed uniformly, then the cells were lysed on ice for 10 min, centrifuged at 4°C at 14000 rpm for 10 min, and the supernatant was collected. Protein content was determined with BCA (Solarbio, PC0020-10*50T). 75 µL of the supernatant was taken, and 25 µL of NuPAGE LDS Sample Buffer (4X) (Thermo B0007) was added to each tube (5% β-mercaptoethanol was added before use) to prepare samples, and the samples were boiled in a metal bath at 100°C for 5 min. […] 1x NuPAGE™ MOPS SDS electrophoresis buffer (20X) (Invitrogen, NP0001) was prepared, and the electrophoresis instrument was set to a constant current of 300 mA for 100 min, and the protein was transferred to a PVDF membrane (Millipore, IPVH00010). […] The membrane was washed three times with 1x TBST (Elabscience E-BC-R335) the next day, each time for 5 min. […] The membrane was washed three times with TBST, each time for 5 min. The Odyssey imaging system Li-cor Odyssey CLx was used to detect signals and analyze data. GraphPad (Prism 9.3) software was used to perform analysis for data, and non-linear fitting (non-liner inhibitor (Bell-shaped)) and four parameters (4 parameter) were used, and the parameters was as follows: Span1 = Plateau1−Dip [formula] Span2 = Plateau2−Dip [formula] Section1 = Span1/(1+10^(∧)((LogEC50_1−X)*nH1)) [formula] Section2 = Span2/(1+10^(∧)((X−LogEC50_2)*nH2)) [formula]
The equation was as follows: Y=Dip+Section1+Section2.
(In general: Immunoblotting shows a protein as a band on a membrane.)

Test [2] deals with T1, IRAK4. Put plainly: Hibit fluorescence detection of proteolysis (IRAK4-HiBiT in HEK293T cells). The note with it: for Dmax: HEK-293T; for DC50: IRAK4-HiBiT, HEK293T cells, 24 h. Also on record: host or cells: HEK293T (ATCC). Type of test: cell-based. The method in brief: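 Degradation read-out: luminescence from lytic HiBiT detection (15 min, room temperature) after 24 h compound exposure (37 °C, 5% CO2) of HEK293T cells transiently expressing IRAK4 fused to a HiBiT tag. Data fitted to a bell-shaped four-parameter model giving two EC50 values.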
In general terms: HiBiT is a short tag that completes a luciferase, so light tracks the accessible tagged protein.

As for `Cn1c(=O)n(C2CCC(=O)NC2=O)c2cccc(N[C@H]3CC[C@H](N(C)C[C@H]4CC[C@H](n5cc(-n6cc(-c7ccc8cc(C(N)=O)cnn78)nn6)c(C(F)F)n5)CC4)CC3)c21` (stereo partly drawn) [Example 61, 7-(1-(3-(difluoromethyl)-1-((1R,4r)-4-((((1r,4R)-4-((1-(2,6-dioxopiperidin-3-yl)-3-methyl-2-oxo-2,3-dihydro-1H-benzo[d]imidazol-4-yl)amino)cyclohexyl)(methyl)amino)methyl)cyclohexyl)-1H-pyrazol-4-yl)-1H - 1,2,3-triazol-4-yl)pyrrolo[1,2-b]pyridazine-3-carboxamide], the DC50 is under 10 nM in test [1] and under 0.5 nM in test [2]. For the same compound, the Dmax in test [1] (read-out: Dmax) is 60 to 70%; in test [2] it was over 80%.
Taken in the same sequence, the figures for `Cn1c(=O)n(C2CCC(=O)NC2=O)c2cccc(N3CCN(C[C@H]4CC[C@H](n5cc(-n6cc(-c7cnn8ccc(N9CCNCC9)nc78)nn6)c(C(F)F)n5)CC4)CC3)c21` (stereo partly drawn) [Example 132, 3-(4-(1R,4R)-4-(3-difluoromethyl)-4-(4-(5-(piperazin-1-yl)pyrazolo[1,5-a]pyrimidin-3-yl)-1H-1,2,3-triazol-1-yl)-1H-pyrazol-1-yl)cyclohexyl)methyl)piperazin-1-yl)-3-methyl-2-oxo-2,3-dihydro-1H-benzoimidazol-1-yl)piperidine-2,6-dione dihydrochloride] were under 10 nM, 0.5 to 1 nM, 60 to 70% and over 80%.
In the case of `Cn1c(=O)n(C2CCC(=O)NC2=O)c2cccc(N[C@H]3CC[C@@H](N(C)C[C@H]4CC[C@H](n5cc(-n6cc(-c7cnn8ccc(N9CCOCC9)nc78)nn6)c(C(F)F)n5)CC4)CC3)c21` (stereo partly shown) [Example 54], the DC50 in test [1] is under 10 nM; in test [2], under 0.5 nM. Also, the Dmax was 60 to 70% in test [1] (read-out: Dmax) and over 80% in test [2].
In the same order, the values of `Cn1c(=O)n(C2CCC(=O)NC2=O)c2cccc(N3CCC(N4CCN(C[C@H]5CC[C@H](n6cc(-n7cc(-n8ccc9cc(C(N)=O)cnc98)nn7)c(C(F)F)n6)CC5)CC4)CC3)c21` (stereo partly shown) [Example 98, 1-(1-(3-(difluoromethyl)-1-((1r,4r)-4-((4-(1-(2-(2,6-dioxopiperidin-3-yl)-3-methyl-2-oxo-3,3-dihydro-1H-benzo[d]imidazol-4-yl)piperidin-4-yl)piperazin-1-yl)methyl)cyclohexyl)-1H-pyrazol-4-yl)-1H-1-1,2,3-triazole)-1H-pyrrolo[2,3-b]pyridine-5-carboxamide] are under 10 nM, under 0.5 nM, over 70% and over 80%.
Taken in the same sequence, the figures for `Cn1c(=O)n(C2CCC(=O)NC2=O)c2cccc(N3CCC4(CCN(C[C@H]5CC[C@H](n6cc(-n7cc(-c8cnn9ccc(N%10CCOCC%10)nc89)nn7)c(C(F)F)n6)CC5)CC4)CC3)c21` (stereo partly shown) [Example 36] were under 10 nM, under 0.5 nM, 60 to 70% and over 80%.
For the compound `C[C@H]1CN(c2cccc3c2n(C)c(=O)n3C2CCC(=O)NC2=O)CCN1C[C@H]1CC[C@H](n2cc(-n3cc(-c4cnn5ccc(N6CCC[C@H](N)C6)nc45)nn3)c(C(F)F)n2)CC1` (stereo partly shown) [Example 285], the DC50 was over 30 nM in test [1] and under 0.5 nM in test [2]. Besides, the Dmax in test [1] (read-out: Dmax) was 60 to 70%; in test [2], over 80%.
Turning to `Cn1c(=O)n(C2CCC(=O)NC2=O)c2cccc(N3CCC4(CCN(C[C@H]5CC[C@H](n6cc(-n7cc(-c8cnn9ccc(N%10CCOC[C@@H]%10CO)nc89)nn7)c(C(F)F)n6)CC5)CC4)CC3)c21` (stereo partly shown) [Example 174], in test [1], the DC50 was under 10 nM. The Dmax in test [1] (read-out: Dmax) was over 70%.
In the same order, the values of `Cn1nc(N2CCC(=O)NC2=O)c2ccc(N3CCC(N4CCN(C[C@H]5CC[C@H](n6cc(-n7cc(-c8cnn9ccc(N[C@@H]%10CCCC[C@@H]%10O)nc89)nn7)c(C(F)F)n6)CC5)CC4)CC3)cc21` [Example 161] are over 30 nM and under 60%.
Regarding `Cn1c(=O)n(C2CCC(=O)NC2=O)c2cccc(N3CCC4(CCN(CC5CCC(n6cc(-n7cc(-c8cnn9ccc(N%10CCO[C@@H](CO)C%10)nc89)nn7)c(C(F)F)n6)CC5)CC4)CC3)c21` (stereo partly shown) [Example 176], in test [1], the Dmax entry was “A (Dmax ≥ 70%)” and the DC50 was under 10 nM.
On to `C[C@H]1CC2(CCN(c3cccc4c3n(C)c(=O)n4C3CCC(=O)NC3=O)CC2)CN1C[C@H]1CC[C@H](n2cc(-n3cc(-c4cnn5ccc(N6CCC[C@H](O)C6)nc45)nn3)c(C(F)F)n2)CC1` (stereo partly drawn) [Example 295, 3-(4-((S)-2-(((1R,4S)-4-(3-(difluoromethyl)-4-(4-(5-((S)-3-hydroxypiperidin-1-yl)pyrazolo[1,5-a]pyrimidin-3-yl)-1H-1,2,3-triazol-1-yl)-1H-pyrazol-1-yl)cyclohexyl)methyl)-3-methyl-2,8-diazaspiro[4.5]dec-8-yl)-3-methyl-2-oxo-2,3-dihydro-1H-benzo[d]imidazol-1-yl)piperidine-2,6-dione], for which the DC50 in test [1] is over 30 nM. In addition, in test [1] (read-out: Dmax), the Dmax is over 70%.
In the same order, the values of `C[C@@H]1CC2(CCN(c3cccc4c3n(C)c(=O)n4C3CCC(=O)NC3=O)CC2)CN1C[C@H]1CC[C@H](n2cc(-n3cc(-c4cnn5ccc(N6CCC[C@H](O)C6)nc45)nn3)c(C(F)F)n2)CC1` (stereo partly shown) [Example 296] are 10 to 30 nM and over 70%.
On to `Cn1c(=O)n(C2CCC(=O)NC2=O)c2cccc(N3CCC(N4CCN(C[C@H]5CC[C@H](n6cc(-n7cc(-c8cnn9ccc(N%10CCC[C@@H](O)C%10)nc89)nn7)c(C(F)F)n6)CC5)CC4)CC3)c21` (stereo partly shown) [Example 247], for which the DC50 in test [1] is under 10 nM. Moreover, the Dmax in test [1] (read-out: Dmax) was over 70%.
Taken in the same sequence, the figures for `C[C@H]1CN(c2cccc3c2n(C)c(=O)n3C2CCC(=O)NC2=O)CCN1C[C@H]1CC[C@H](n2cc(-n3cc(-c4cnn5ccc(N6CCC[C@H](O)C6)nc45)nn3)c(C(F)F)n2)CC1` (stereo partly drawn) [Example 287, 3-(4-((S)-4-(((1R,4S)-4-(3-(difluoromethyl)-4-(4-(5-((S)-3-hydroxypiperidin-1-yl)pyrazolo[1,5-a]pyrimidin-3-yl)-1H-1,2,3-triazol-1-yl)-1H-pyrazol-1-yl)cyclohexyl)methyl)-3-methylpiperazin-1-yl)-3-methyl-2-oxo-2,3-dihydro-1H-benzo[d]imidazol-1-yl)piperidine-2,6-dione] were under 10 nM and over 70%.
Taken in the same sequence, the figures for `Cn1nc(C2CCC(=O)NC2=O)c2cccc(N3CCC(N4CCN(C[C@H]5CC[C@H](n6cc(-n7cc(-c8cnn9ccc(N%10CCC[C@H](O)C%10)nc89)nn7)c(C(F)F)n6)CC5)CC4)CC3)c21` (stereo partly shown) [Example 293] were under 10 nM and over 70%.
Regarding `C[C@@H]1CN(C2CCN(c3cccc4c3n(C)c(=O)n4C3CCC(=O)NC3=O)CC2)CCN1C[C@H]1CC[C@H](n2cc(-n3cc(-c4cnn5ccc(N6CCC[C@H](O)C6)nc45)nn3)c(C(F)F)n2)CC1` (stereo partly shown) [Example 292], in test [1], the DC50 was under 10 nM. Besides, the Dmax in test [1] (read-out: Dmax) is over 70%.
In the same order, the values of `Cn1c(=O)n(C2CCC(=O)NC2=O)c2cccc(N3CCC(CN4CCC5(CCC(n6cc(-n7cc(-c8ccc9cc(C(N)=O)cnn89)nn7)c(C(F)F)n6)CC5)CC4)CC3)c21` (stereo not shown) [Example 172] are under 10 nM and over 70%.
Regarding `C[C@H]1CN(C[C@H]2CC[C@H](n3cc(-n4cc(-c5cnn6ccc(N[C@@H]7CCCC[C@@H]7O)nc56)nn4)c(C(F)F)n3)CC2)CCN1C1CCN(c2cccc3c2n(C)c(=O)n3C2CCC(=O)NC2=O)CC1` (stereo partly shown) [Example 166], the DC50 in test [1] was under 10 nM. Moreover, in test [1] (read-out: Dmax), the Dmax was over 70%.
